Measured values published in article PMC6008768, “Physiologically Based Pharmacokinetic Modelling with Dynamic PET Data to Study the In Vivo Effects of Transporter Inhibition on Hepatobiliary Clearance in Mice” (Contrast Media & Molecular Imaging, 2018).
“And” between values parts separate entries of the source, which are not always exact repeats. Equal values may be shown once. Read-outs that look alike come from different tables or passages of the source.

Experiments:
[1] = parameters: method as in PMID 24834996; details: 30 min after administration; cited from earlier work
[2] = test system: hCD80-positive xenografts; parameters: method as in PMID 24834996; details: previous work; cited from earlier work
[3] = cited from earlier work
[4] = test system: human costimulatory molecule CD80 (hCD80); parameters: method as in Taddio et al., in preparation; details: ref Taddio et al., in preparation; cited from earlier work
[5] = Plasma kinetics: biexponential fit of image-derived CPlasma(t) from dynamic PET; assay type: in vivo, mice
Experimental: (§1) For PET/CT acquisition, mice were anaesthetized with 3 to 5% isoflurane in air/oxygen (1 : 1), at a respiratory rate of ~60 per min as described elsewhere. Cyclosporine (50 mg/kg), to inhibit cyclosporine-sensitive transporters, was injected into a tail vein (i.v.), 30 to 50 min before tracer injection while the respective tracer was synthesized. The injected cyclosporine solution was a dilution with water for injection (1 : 1) of Sandimmun® (Novartis Pharmaceuticals, Basel, Switzerland; 50 mg/ml cyclosporine in 26.1% ethanol/65% PEG-35 castor oil). Vehicle (13% ethanol, 2 ml/kg) was injected as a control as indicated. Immediately after radiosynthesis quality control, the tracer was injected i.v. at a dose between 3 and 14 MBq (<20 nmol/kg) in 100 to 200 μL saline containing 5% ethanol. Injections lasted ~10 s. The mouse was transferred to a SuperArgus PET/CT scanner (Sedecal, Madrid, Spain, formerly Vista eXplore) with an axial field of view of 4.8 cm and a spatial resolution of 1.6–1.7 mm (full width at half maximum; [23]). Body temperature and respiratory rate were controlled as previously described. The PET scan was started in List mode 60 s after tracer injection. After 60 min scan duration, computed tomography (CT) data were recorded for anatomical orientation.
The blood C(t) was generated with PMOD from the PET images as follows. A cropped cube of 10 × 10 × 10 mm^3 including the image data of the heart was divided into 12 segments with differing kinetics, using the PSEG module of PMOD. C(t) of the segment covering the left heart ventricle according to the PET (first time frame)/CT images was used as an estimation of the blood C(t) (CBlood(t)). CBlood(t) was divided by (1 − hematocrit) to get CPlasma(t) and fitted to a biexponential infusion function as shown in (1) CPlasmat=A0/T×V1×λ1×V1/Vz−λ1/λ1λz−λ1×1−e^−λ1×tt≤T+Tt>T×e^−λ1×t−Tt>T+λ1×V1/Vz−λz/λzλ1−λz×1−e^−λz×tt≤T+Tt>T×e^−λz×t−Tt>T, where A(0) is the radioactivity dose, T is the duration of the injection (10 s infusion), V1 is the volume of the central compartment (initial volume of distribution of the tracer after injection), Vz is the volume of distribution during the terminal phase, and λ1 and λz are the respective rate constants of the biexponential function and t the time. The term [t(t ≤ T) + T(t > T)] equals t if t ≤ T but T if t > T. The term (t − T)(t > T) equals t − T if t > T, otherwise zero. The hematocrit was assumed 0.44 [25, 26].
Total CL was calculated as the sum of CLH and CLR and compared to the CL estimated from the CPlasma(t) biexponential fits (see (1)), as CL = λz × Vz. The extraction ratio EH for liver was estimated as ratio between CLH and QP,H, with QP,H from Davies and Morris.

[6] = PET images: radioactivity distribution; assay type: in vivo, mice; details: for radioactivity distribution in PET images: control conditions; for change of radioactivity distribution in PET images: cyclosporine 50 mg/kg i.v. before tracer, compared to scans without cyclosporine
Experimental: as §1
The PET data were reconstructed into 10 or 12 time frames by 2D Fourier rebinning/ordered-subsets expectation maximization (FORE/OSEM), 2 iterations, and 16 subsets, correcting for singles and randoms but not attenuation. Images were generated with the software PMOD v3.8 (PMOD, Zurich, Switzerland). All radioactivities were decay-corrected to the time point of tracer injection.

[7] = In vivo PBPK compartment modelling of dynamic whole-body PET data; parameters: species or system mice; details: for average CLH when kBG was fitted / calculated transintestinal clearance: kBG fitted
Text: C(t) of liver, kidneys, and peripheral tissue and A(t) of gallbladder and intestines were derived from manually drawn volumes of interest according to the PET/CT images, using the VOI functions of PMOD. Regions of interest are shown for a representative scan in Supplementary Figure 1. C(t) data were transformed to A(t) by multiplication with the reported average volume of the respective organ or tissue. These were 0.065 cm^3 per g BW for liver and 0.0164 cm^3 per g BW for kidneys. The volume of the “peripheral tissue” (VTissue) with C(t) determined from the left shoulder was estimated during the fitting procedure. It was 0.74 ± 0.08 cm^3 per g BW for [^11C]MT107 control scans and 0.79 ± 0.10 cm^3/g for [^11C]MT107 scans after cyclosporine treatment, without significant difference (p = 0.47).
A(t) of the individual regions of interest were fitted with custom-written MATLAB scripts (MathWorks, Natick, MA) according to the compartment model shown in Figure 2, using the ode45 function to solve the differential equation system. Tracer input was simulated as a constant input of duration T (A(0)/T). Fitting was performed with the solver fmincon and the function MultiStart with 128 random sets of bounded initial parameters. Calculations were performed by parallel computing on 40 cores of the Euler cluster of ETH Zurich (https://scicomp.ethz.ch/). The initial parameters were best guesses from supervised simulations. Initial lower bounds were 0 for the rate constants of mass transfer (k). For k from plasma to liver and kidneys, the initial upper bounds were set according to the reported values for blood flow, corrected for (1 − hematocrit) to get the plasma flow (QP) divided by the plasma volume (VPlasma = vBlood × (1 − hematocrit) × BW). The QP for liver (QP,H) was 1.0 ml/min and for kidneys (QP,R) 0.73 ml/min.
Figure 2 Model for the pharmacokinetic analysis. A(0) is the dose, and T is the infusion duration (10 s). Initial A(t = 0) for all compartments (indicated by black boxes) were zero. The parameters k are mass transfer rate constants with the unit 1/time. The indices denote the source and target compartments, respectively (e.g., kBH1, k for the mass transfer from blood plasma to hepatic compartment “Liver 1”). A(t) of peripheral tissue was best fit with two sets of rate constants for reversible transfer. The sum of the two plasma-to-tissue rate constants is kBT. Several models were evaluated and the results were visually inspected. […] For [^11C]MT107 scans, kBG (grey arrow) was set to 0. Tissue blood fractions (vBlood multiplied with the organ or tissue volume and CBlood(t)) were added to the compartments where applicable. B, blood plasma; G, gallbladder plus intestine combined; H, liver; R, kidneys; T, peripheral tissue; U, urine.
During the fitting procedure, the sum of weighted squared residuals of all A(t) was minimized. For weighting, the residuals of the first two data points of plasma, liver, and kidney were multiplied with 5, to force the fits through these initial data points. After several rounds, the best estimates with the lowest sum of squared residuals were used per tracer to define the final upper and lower bounds as 0.5-fold the minimal respective fit parameter and 2-fold the highest respective fit parameter per tracer. […] Under these refined conditions, one calculation (one scan) with 128 random sets of initial values required 10–120 min.
CLH was calculated according to (2) CLH=kBH1×kH1H2/kH1B+kH1H2×VPlasma, where the rate constants k are defined in the model in Figure 2. Note that at steady state this equals CLH calculated from kH2G.
The term 1/(1 + kR1R2/kR2R1) corrects for the mass ratio between R1 and the combined R1 and R2.
Total CL was calculated as the sum of CLH and CLR and compared to the CL estimated from the CPlasma(t) biexponential fits (see (1)), as CL = λz × Vz. […]

[8] = parameters: method as in PMID 24834996; details: cited from earlier work
[9] = after cyclosporine 50 mg/kg i.v.
[10] = after cyclosporine 50 mg/kg i.v., 30 to 50 min before tracer
[11] = control, tracer i.v., 60 min PET scan
[12] = control, for [11C]AM7 CLH includes kBG × VPlasma, for [11C]MT107 kBG = 0
[13] = cyclosporine 50 mg/kg i.v. versus control

| Structure (SMILES) | affinity to hCD80 [4] | Vz, volume of distribution during the terminal phase [5, 9] [mL] | λ1 rate constant of biexponential function [5, 9] [min⁻¹] | λz rate constant of biexponential function [5, 9] | V1, volume of the central compartment [5, 10] [mL] | Vz, volume of distribution during the terminal phase ([5]; control) | λ1 rate constant of biexponential function ([5]; control) | λz rate constant of biexponential function ([5]; control) | V1, volume of the central compartment [5, 11] | radioactivity distribution in PET images [6] | change of radioactivity distribution in PET images [6] | CLR, renal clearance ([7]; control) | DTissue, distribution coefficient between tissue and plasma at equilibrium ([7]; control) | CLH, hepatobiliary clearance [7, 12] | further results |
| --- | --- | --- | --- | --- | --- | --- | --- | --- | --- | --- | --- | --- | --- | --- | --- |
| [11CH3]N1CCC(NC(=O)c2ccc(-n3[nH]c4c(nnc5c(F)cccc54)c3=O)cc2)CC1 [[^11C]AM7] | low nanomolar range | 8.0 | 0.204 | 0.0206 min⁻¹ | 4.2 | 10.3 mL and 9.4 mL | 0.196 min⁻¹ and 0.295 min⁻¹ | 0.0234 min⁻¹ and 0.0270 min⁻¹ | 3.0 mL and 2.3 mL | accumulated in the liver, gallbladder, intestines, and the urinary bladder | increased in kidneys and peripheral tissue and reduced in liver, gallbladder, and intestines | 161 µL/min and 179 µL/min | 0.11 and 0.12 | 103 µL/min and 120 µL/min | radiometabolites in blood plasma [1]: No radiometabolites were detected; accumulation in hCD80-positive xenografts [2]: negligible; logD (pH 7.4) [3]: 0.1; unbound fraction in plasma (fu) [8]: 0.02 |
| [11CH3]N1CCC(NC(=O)c2ccc(-n3[nH]c4c(c(-c5cccc(C(F)(F)F)c5)nc5c(F)cccc54)c3=O)cc2)CC1 [[^11C]MT107] | low nanomolar range | 3.33 ± 0.80 | 0.139 ± 0.021 | 0.0140 ± 0.0034^∗∗b 1/min | 1.38 ± 0.11 | 2.66 ± 0.51 mL | 0.121 ± 0.011 min⁻¹ | 0.0210 ± 0.0011 min⁻¹ | 1.49 ± 0.19 mL | higher tissue radioactivity compared to [^11C]AM7 but still high abdominal radioactivity accumulation | increased radioactivity uptake in the kidneys and peripheral tissue and reduction in the liver | 11.9 ± 5.3 µL/min | 0.10 ± 0.02 | 35.2 ± 10.9 µL/min | logD (pH 7.4) ([3]; ref Taddio et al., in preparation): 2.0; increase of Vz after cyclosporine administration ([5]; not significant (p = 0.21)): 1.25 fold; kGH1, rate constant of reabsorption from intestines into liver compartment H1 ([7]; absence of cyclosporine): 0.0077 ± 0.0033 min⁻¹; CLR, renal clearance [7, 9]: 19.9 ± 5.1 µL/min; DTissue, distribution coefficient between tissue and plasma at equilibrium [7, 9]: 0.14 ± 0.03; CLH, hepatobiliary clearance ([7]; after cyclosporine 50 mg/kg i.v., kBG = 0): 17.1 ± 5.6 µl/min and 17.1 ± 5.6^∗b µl/min; average CLH when kBG was fitted ([7]; after cyclosporine administration): 9.3 ± 4.2 µL/min; increase of CLR after cyclosporine administration ([7]; average, not significant (p = 0.069)): 1.7 fold; EH, extraction ratio for liver (CLH/QP,H) ([7]; control): 0.035 ± 0.011; total CL from modelling lower than from biexponential fit of CPlasma(t) ([7]; control group): 16%; VTissue, volume of the peripheral tissue estimated during fitting ([7]; control scans): 0.74 ± 0.08 cm^3 per g BW; average CLH when kBG was fitted ([7]; control): 25.4 ± 6 µL/min; calculated transintestinal clearance ([7]; control): 10.5 ± 11.3 µL/min; CLH after cyclosporine relative to value in the absence of cyclosporine [7, 13]: 48%; EH after cyclosporine relative to value in the absence of cyclosporine [7, 13]: 48%; total CL from modelling lower than from biexponential fit of CPlasma(t) ([7]; cyclosporine group): 17%; calculated transintestinal clearance ([7]; cyclosporine group): 7.8 ± 4.1 µL/min; increase of average DTissue after cyclosporine administration (factor) ([7]; not significant (p = 0.078)): 1.34; kGH1, rate constant of reabsorption from intestines into liver compartment H1 ([7]; presence of cyclosporine): 0.0080 ± 0.0038 min⁻¹; VTissue, volume of the peripheral tissue estimated during fitting ([7]; scans after cyclosporine treatment): 0.79 ± 0.10 cm^3/g |
